Reference: patent US20250099468A1, “TREATING LIVER DISORDERS WITH AN SSAO INHIBITOR” (Terns Pharmaceuticals, Inc., priority 2021, published 2025)
“Also recorded” adds a separate entry of the source. Each block holds one compound with its values, some of them ahead of it.

Columns and labels:
[1] = target: T1, MAO-A (Homo sapiens, UniProt P21397); assay: Biochemical activity, MAO-A; details: all single dose levels (1-10 mg)
T1 sequence (P21397 1-527): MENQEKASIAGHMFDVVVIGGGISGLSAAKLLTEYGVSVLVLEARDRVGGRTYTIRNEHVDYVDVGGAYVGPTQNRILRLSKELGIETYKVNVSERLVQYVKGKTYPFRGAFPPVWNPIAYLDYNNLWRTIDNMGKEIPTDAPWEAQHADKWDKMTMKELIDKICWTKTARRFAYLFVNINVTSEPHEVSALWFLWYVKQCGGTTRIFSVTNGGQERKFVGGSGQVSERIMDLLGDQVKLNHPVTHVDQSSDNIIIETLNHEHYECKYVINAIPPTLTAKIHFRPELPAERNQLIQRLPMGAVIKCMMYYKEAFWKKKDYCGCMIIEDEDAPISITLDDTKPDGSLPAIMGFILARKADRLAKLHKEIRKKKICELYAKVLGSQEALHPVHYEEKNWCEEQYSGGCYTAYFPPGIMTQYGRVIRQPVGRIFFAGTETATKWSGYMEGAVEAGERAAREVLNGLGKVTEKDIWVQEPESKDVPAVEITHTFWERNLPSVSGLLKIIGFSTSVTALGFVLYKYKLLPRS

[2] = target: T2, MAO-B (Homo sapiens, UniProt P27338); assay: Biochemical activity, MAO-B; details: all single dose levels (1-10 mg)
T2 sequence (P27338 1-520): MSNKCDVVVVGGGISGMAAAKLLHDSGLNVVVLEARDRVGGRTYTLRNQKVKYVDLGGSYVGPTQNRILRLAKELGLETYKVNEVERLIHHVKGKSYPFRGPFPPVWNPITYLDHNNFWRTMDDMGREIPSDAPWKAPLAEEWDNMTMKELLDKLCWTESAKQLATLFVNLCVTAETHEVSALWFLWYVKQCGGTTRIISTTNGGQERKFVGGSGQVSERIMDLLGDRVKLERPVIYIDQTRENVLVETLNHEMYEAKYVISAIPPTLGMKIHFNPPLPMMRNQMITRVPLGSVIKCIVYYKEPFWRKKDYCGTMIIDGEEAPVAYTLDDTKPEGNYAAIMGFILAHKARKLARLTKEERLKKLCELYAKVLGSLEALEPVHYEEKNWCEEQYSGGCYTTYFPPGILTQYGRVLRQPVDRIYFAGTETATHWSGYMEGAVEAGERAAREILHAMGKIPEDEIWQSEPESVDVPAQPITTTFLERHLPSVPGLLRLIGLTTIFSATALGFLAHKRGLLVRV

[3] = Single-ascending dose clinical trial, plasma PK; type: in vivo, human; details: for plasma PK exposure increase with dose: single dose, between 3 and 10 mg
Description: (§1) Safety was assessed for 7 (±3) days after dosing.
(§2) Plasma PK parameters were determined by non-compartmental analysis.

[4] = target: T3, plasma SSAO (Homo sapiens, UniProt Q16853); assay: Single-ascending dose trial, plasma SSAO / amine oxidase activity; type: in vivo
T3 construct: from tissue; host or cells: human plasma
T3 sequence (Q16853 29-763 limits assumed): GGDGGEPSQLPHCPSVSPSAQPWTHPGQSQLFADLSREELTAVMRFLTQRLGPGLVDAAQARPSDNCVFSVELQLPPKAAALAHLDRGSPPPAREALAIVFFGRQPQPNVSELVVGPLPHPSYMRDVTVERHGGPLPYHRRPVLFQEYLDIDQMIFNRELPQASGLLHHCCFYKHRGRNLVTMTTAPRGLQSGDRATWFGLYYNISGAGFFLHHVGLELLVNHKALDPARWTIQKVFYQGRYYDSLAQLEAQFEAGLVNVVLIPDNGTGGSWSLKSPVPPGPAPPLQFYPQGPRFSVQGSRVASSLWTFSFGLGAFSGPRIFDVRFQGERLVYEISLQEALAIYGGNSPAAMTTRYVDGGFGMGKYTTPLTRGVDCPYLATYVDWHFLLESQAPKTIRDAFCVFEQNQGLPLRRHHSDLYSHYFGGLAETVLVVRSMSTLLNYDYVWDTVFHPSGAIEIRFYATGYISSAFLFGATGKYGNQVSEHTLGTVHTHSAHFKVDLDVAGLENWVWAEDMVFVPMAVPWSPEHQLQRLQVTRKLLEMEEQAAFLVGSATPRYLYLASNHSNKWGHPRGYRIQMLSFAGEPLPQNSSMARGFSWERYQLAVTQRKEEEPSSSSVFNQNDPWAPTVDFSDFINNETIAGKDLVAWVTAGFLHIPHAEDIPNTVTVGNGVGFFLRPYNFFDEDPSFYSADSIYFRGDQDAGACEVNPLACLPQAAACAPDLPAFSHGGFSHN
Description: as §1, §2
SSAO-specific amine oxidase levels in plasma were determined using a kinetic-based assay essentially as described previously (Schilter et al). Endogenous monoamine oxidases A and B were inhibited by adding pargyline to plasma samples prior to measuring H2O2 generation levels in placebo and active recipients.

[5] = test system: plasma methylamine; assay: Single-ascending dose trial, plasma methylamine (MMA); type: in vivo, human; details: single dose 1-10 mg
Description: as §1

[6] = Multiple-ascending dose clinical trial, safety; type: in vivo, human
Description: (§3) A multiple-ascending dose clinical trial of Compound 1 was performed.

[7] = Multiple-ascending dose clinical trial, plasma PK; type: in vivo, human
Description: as §3

[8] = target: T3, plasma SSAO; assay: Multiple-ascending dose trial, plasma SSAO / amine oxidase activity; type: in vivo
Description: as §3

[9] = test system: plasma methylamine; assay: Multiple-ascending dose trial, plasma methylamine; type: in vivo, human
Description: as §3

[10] = NASH patient study Part 1, safety; type: in vivo, human; details: 10 mg QD 12 weeks, NASH patients
Description: (§4) Part 1 interim analysis primary endpoint was safety assessed by adverse events (AEs) and laboratory tests; percent change from baseline (BL) in plasma VAP-1 activity was a secondary endpoint. Exploratory imaging and blood-based biomarkers of liver inflammation and fibrosis were also assessed. Analyses of change (or percent change) from baseline used an ANCOVA model with change (or percent change) from baseline as the dependent variable including treatment group and randomization strata as fixed effects and baseline as a covariate.

[11] = target: T4, plasma VAP-1 (Homo sapiens, UniProt Q16853); assay: NASH patient study Part 1, plasma VAP-1 activity; type: in vivo; details: 10 mg QD, through week 12
T4 construct: from tissue; host or cells: human plasma
T4 sequence (Q16853 29-763 limits assumed): T3 sequence (Q16853 29-763 limits assumed)
Description: as §4

[12] = test system: NASH and inflammation biomarkers; assay: NASH patient study Part 1, imaging and blood biomarkers of liver inflammation and fibrosis; type: in vivo, human
Description: Plasma samples are collected for measurement of plasma concentrations of study drug and metabolites. Urine samples are collected for measurement of urine concentrations of study drug and metabolites. Patients who are not participating in the PK/PD sub-study undergo trough PK sampling only. Blood collection for NASH/fibrosis markers (CK-18 (M30 and M65), PIIINP, TIMP-1, HA, PRO-C3, and C3M) and inflammation markers (hs-CRP, IL-6, ICAM-1, and VCAM-1) are also conducted. The following exploratory fibrosis scores may also be calculated: FIB-4, enhanced liver fibrosis (ELF), and NAFLD. The PRO-C3/C3M ratio may be calculated. Patients are monitored for adverse events.
as §4

[13] = test system: rat model of NASH; assay: Rat model of NASH; type: in vivo
[14] = Single-ascending dose clinical trial, safety; type: in vivo, human; details: single dose 6 mg or placebo (n = 8)
Description: as §1

[15] = 1, 4 mg QD 7 days, 10 mg QD 14 days

Cmax relative to IC50 for MAO-A (times lower) [1]: more than 800 times
Cmax relative to IC50 for MAO-B (times lower) [2]: more than 800 times
plasma PK exposure increase with dose [3]: greater than dose proportional
duration of SSAO activity inhibition after a single dose ([4]; single dose 1 mg to 10 mg): up to seven days
duration of suppression of plasma SSAO amine oxidase activity after a single dose ([4]; single dose 1-10 mg): up to 1 week
plasma PK exposure increases between dose groups ([7]; Day 1, 1, 4, 10 mg): greater than dose proportional
accumulation after multiple QD doses ([7]; each dose level): significant accumulation
duration of near complete inhibition of plasma SSAO amine oxidase activity after cessation of dosing ([8]; after multiple QD doses): up to 2 weeks
inhibition of total amine oxidase ([8]; plasma, single and multiple doses): incomplete
Structure (SMILES): COC1CCN(c2ncc(OC/C(=C/F)CN)cn2)CC1 [Compound 1, (E)-3-fluoro-2-(((2-(4-methoxypiperidin-1-yl)pyrimidin-5-yl)oxy)methyl)prop-2-en-1-amine]
plasma methylamine (MMA) levels [5]: increased; also recorded: Dose-dependent increases
discontinuation due to an adverse event [6, 15]: No subject discontinued
severity of adverse events [6, 15]: mild (grade 1)
safety and tolerability (laboratory, vital signs, ECG) ([6]; up to 10 mg QD for 14 days, healthy subjects): no notable findings; also recorded: safe and well tolerated
plasma methylamine levels ([9]; Day 1): increased in a dose proportional manner
plasma methylamine levels ([9]; last day of administration, after multiple doses): further increases
severity of AEs [10]: mild or moderate
tolerability [10]: well-tolerated
inhibition of plasma VAP-1 activity [11]: sustained suppression; also recorded: near complete inhibition
changes in cT1 from baseline to end of treatment ([12]; 10 mg QD 12 weeks): no significant changes
difference from placebo in change from BL cT1, liver fat fraction, liver enzymes, or cytokeratin-18 ([12]; 10 mg QD 12 weeks): no statistically significant differences
ICAM-1 decrease relative to BL, mean (±SE) ([12]; 10 mg QD, Week 8): 34.85 (56.03) μg/L
TIMP-1 decrease relative to BL, mean (±SE) ([12]; 10 mg QD, Week 12): 29.58 (9.26) ng/ml
VCAM-1 decrease relative to BL, mean (±SE) ([12]; 10 mg QD, Week 12): 24.327 (20.5850) μg/L
liver inflammation and fibrosis [13]: decreases liver inflammation and fibrosis

plasma PK exposure increase with dose [3]: greater than dose proportional
clearance from plasma ([3]; single doses): rapidly cleared from plasma
Structure (SMILES): COC1CCN(c2ncc(OC/C(=C/F)CN)cn2)CC1.Cc1ccc(S(=O)(=O)O)cc1 [tosylate salt of Compound 1]
Subject incidence of any TEAE [14]: 2 (25)
TEAE frequency: contact dermatitis [14]: 2 (25)
TEAE frequency: sore throat [14]: 1 (12.5)
